Laboratory results from US4046904A, “Novel penicillin, and its preparation and use” (Sumitomo Chemical Company, Limited, priority 1975, dated 1977).

What was measured:
[1] = Acute toxicity in mice, intraperitoneal (Table 9); details: mouse, in vivo, ip
Description: The acute toxicity of Compound (I) and Compound (C) in ICR strain mice when administered by intraperitoneal route are shown in Table 9.
Note: Compound (I) and Compound (C) were subjected to the test in the form of the sodium salt.

[2] = test system: Klebsiella pneumoniae; assay: Intraperitoneal infection in mice, median protective dose (Table 5); assay type: in vivo
Experimental: (§1) The relative activities of Compound (I) and Compound (C) against various intraperitioneal infections in mice evaluated by the minimum inhibitory concentrations and the means median protective doses (subcutaneously administered) are shown in Table 5.
(§2) Note: Compound (I) and Compound (C) were subjected to the test in the form of the sodium salt. For each test, five male ICR-SLC strain mice were used at each dose level. MIC was determined by the nutrient broth dilution method. In determination of PD50, subsutaneous treatment was carried out three times, i.e. 1, 3 and 5 hours after infection.

[3] = test system: Pseudomonas aeruginosa; assay: as above; assay type: in vivo
Experimental: as §1, §2

[4] = test system: Streptococcus faecalis; assay: as above; assay type: in vivo
Experimental: as §1, §2

[5] = test system: Staphylococcus aureus; assay: as above; assay type: in vivo
Experimental: as §1, §2

[6] = test system: Klebsiella pneumoniae; assay: MIC, nutrient broth dilution (Table 5); assay type: cell-based; details: Klebsiella pneumoniae strain No. 1, sodium salt
Experimental: as §1, §2

[7] = test system: Klebsiella pneumoniae; assay: MIC, nutrient broth dilution (Table 2); assay type: cell-based
Experimental: (§3) Note: Compound (I), Compound (A) and Compound (B) were subjected to the test in the form of the sodium salt. For each test, eight male ICR-SLC strain mice were used at each dose level. MIC was determined by the nutrient broth dilution method. In determination of PD50, subcutaneous treatment was carried out twice, i.e. 1 and 4 hours after infection.

[8] = test system: Pseudomonas aeruginosa; assay: MIC, nutrient broth dilution (Table 2); assay type: cell-based
Experimental: as §3

[9] = test system: Escherichia coli; assay: MIC, nutrient broth dilution (Table 2); assay type: cell-based
Experimental: as §3

[10] = pain when administered parenterally; assay type: in vivo; details: relative to said penicillins

CC1(C)S[C@@H]2[C@H](NC(=O)[C@H](NC(=O)c3ccnnc3O)c3ccc(O)cc3)C(=O)N2[C@H]1C(=O)O [Compound (I), 6-[D-2-(3-hydroxypyridazine-4-carbonamido)-2-(p-hydroxyphenyl)acetamido]penicillanic acid]
LD50 [1]: 7100 mg/kg
PD50 relative to Compound (C) ([2]; mice, subcutaneous): approximately equal
ED50 ([2]; sc, K. pneumoniae strain No. 1, male ICR-SLC mice, subcutaneous, 1, 3 and 5 hours after infection, sodium salt, read-out: PD50): 16 mg/kg
PD50 relative to Compound (C) ([3]; mice, subcutaneous): inferior
ED50 ([3]; sc, P. aeruginosa strain TS, male ICR-SLC mice, subcutaneous, 1, 3 and 5 hours after infection, sodium salt, read-out: PD50): 22 mg/kg
ED50 ([4]; Enterococcus faecalis, sc, S. faecalis strain F10, male ICR-SLC mice, subcutaneous, 1, 3 and 5 hours after infection, sodium salt, read-out: PD50): 1.1 mg/kg
PD50 relative to Compound (C) ([4]; Streptococcus faecalis, mice, subcutaneous): markedly superior
PD50 relative to Compound (C) ([5]; mice, subcutaneous): markedly superior
ED50 ([5]; sc, S. aureus strain A24, male ICR-SLC mice, subcutaneous, 1, 3 and 5 hours after infection, sodium salt, read-out: PD50): 2 mg/kg
MIC [6]: 6.25 µg/mL
MIC ([7]; Klebsiella pneumoniae strain No. 1, sodium salt): 6.25 µg/mL
MIC ([7]; Klebsiella pneumoniae strain No. 6, sodium salt): 25 µg/mL
MIC ([7]; Klebsiella pneumoniae strain No. 20, sodium salt): 12.5 µg/mL
MIC ([8]; Pseudomonas aeruginosa strain NC-5, sodium salt): 12.5 µg/mL
MIC ([8]; Pseudomonas aeruginosa strain T, sodium salt): 25 µg/mL
MIC ([9]; Escherichia coli strain NIHJ, sodium salt): 6.25 µg/mL
MIC ([9]; Escherichia coli strain No. 37, sodium salt): 12.5 µg/mL
pain when administered parenterally [10]: weaker pain
